Publication PMC6562610, “Inhibition of Hedgehog Signaling in Fibroblasts, Pancreatic, and Lung Tumor Cells by Oxy186, an Oxysterol Analogue with Drug-Like Properties” (Cells, 2019)

How the values were obtained:
[1] = system: Gli1 expression in H2030 cells; assay: Inhibition of Gli1 expression in H2030 cells, Q-RT-PCR; assay type: cell-based, human; conditions: 10 µM, 72 h
Excerpt: (§1) NIH3T3-E1 fibroblasts were obtained from ATCC (Manassas, VA) and cultured, as previously described. CAPAN-1 and PANC-1 human pancreatic cancer cells were obtained from ATCC and cultured in Dulbecco’s Modified Eagle Medium (DMEM) containing 10% heat-inactivated fetal bovine serum (FBS) (Hyclone Laboratories, Logan, UT, USA) and antibiotics, as previously described. The human lung cancer cell lines A549 and H2030 were obtained from ATCC and cultured in RPMI-1640 containing 10% FBS. The human hepatoma cell line HepG2 was obtained from ATCC and cultured in DMEM containing 10% FBS. Mouse embryonic fibroblasts (MEFs) from suppressor of fused (Sufu) null mice (Sufu^−/−) were provided by Dr. Philip Beachy of Stanford University and cultured in DMEM containing 10% FBS. Gant61, SB431542 and vismodegib (GDC0449) were obtained from Cayman Chemical, HPI-1 was obtained from Abcam. For experiments, cells were treated in a medium containing 5% FBS.
(§2) Total RNA was extracted with the RNeasy Plus Mini Kit from Qiagen, according to the manufacturer’s instructions. One microgram of RNA was reverse-transcribed using an iScript Reverse Transcription Supermix from Bio-Rad, to make single-stranded cDNA. The cDNAs were then mixed with Qi SYBR Green Supermix (Bio-Rad, Hercules, CA, USA) for quantitative RT-PCR assay using a Bio-Rad I-cycler IQ quantitative thermocycler. All PCR samples were prepared in triplicate wells in a 96-well plate. […] Fold changes in gene expression were calculated using the ΔΔCt method. […]
(§3) Figure 4 Inhibition of Gli and Shh expression in (a) PDAC (PANC-1) and (b,c) human lung cancer cells (A549 and H2030, respectively) by Oxy186. Cells were treated with the compounds as indicated in DMEM or RPMI 1640 containing 5% FBS for (a) 48 or (b,c) 72 hours, then RNA was extracted and analyzed by Q-RT-PCR for the expression of Gli1 and normalized to GAPDH expression. (d) CAPAN-1 cells were treated with the compounds, as indicated, in DMEM containing 5% FBS for 72 h, then RNA was extracted and analyzed by Q-RT-PCR for the expression of Shh and normalized to GAPDH expression. […]

[2] = system: endogenous Gli activity in Sufu-/- cells; assay: Gli responsive luciferase reporter in Sufu-/- cells; assay type: cell-based, mouse; conditions: 10 µM, 72 h
Procedure: NIH3T3-E1 and Sufu^−/− cells cultured in 24-well plates at 90% confluence were transiently transfected with 0.1 µg of Gli response-element reporter (pGL3b-8xGli-Luciferase) plasmid, and 10 ng of pTK-Renilla-Luciferase plasmid with or without co-transfection with 10 ng of Gli1 overexpression vector, pSRα-Gli1, as previously described using Lipofectamine LTX Plus transfection reagent (Invitrogen). Twenty-four h after transfection, cells were treated with test agents for 72 h. Then the firefly and Renilla luciferase activities were measured using a dual luciferase kit (Promega, Madison, WI, USA) and a GloMax-96 Microplate Luminometer. The firefly luciferase activities were normalized to the Renilla luciferase activities. Data are reported as the mean of triplicate determinations ± SD.
Figure 5 Oxy186 acts downstream of Smo. (a) Sufu^−/− mouse embryonic fibroblast (MEF) cells were treated with DMEM containing 10% FBS in the presence or absence of Oxy186 (10 µM). After 72 h, RNA was extracted and analyzed by Q-RT-PCR for the expression of Hh target genes Gli1, Ptch1, and Hip, normalized to Oaz1 expression. […] Luciferase activity was measured and normalized to the Renilla luciferase activity. […]

[3] = system: Gli1 expression in A549 cells; assay: Inhibition of Gli1 expression in A549 cells, Q-RT-PCR; assay type: cell-based, human; conditions: 10 µM, 72 h
Excerpt: as §1, §2, §3

[4] = system: Smo mediated activation of Hh signaling in NIH3T3 cells; assay: Inhibition of Hh signaling from allosteric activation of Smo by Oxy133, Q-RT-PCR; assay type: cell-based, mouse; conditions: 72 h
Procedure: Total RNA was extracted with the RNeasy Plus Mini Kit from Qiagen, according to the manufacturer’s instructions. One microgram of RNA was reverse-transcribed using an iScript Reverse Transcription Supermix from Bio-Rad, to make single-stranded cDNA. The cDNAs were then mixed with Qi SYBR Green Supermix (Bio-Rad, Hercules, CA, USA) for quantitative RT-PCR assay using a Bio-Rad I-cycler IQ quantitative thermocycler. All PCR samples were prepared in triplicate wells in a 96-well plate. After 40 cycles of PCR, melt curves were examined in order to ensure primer specificity. Fold changes in gene expression were calculated using the ΔΔCt method. Primers used for mouse were as follows: Oaz1 (5’-CCACTGCTTCGCCAGAGAG-3’) and (5’-CCCGGACCCAGGTTACTA-3’), Gli1 (5’-[…]-3’ and 5’-[…]-3’), Ptch1 (5’-CCATCGGCGACAAGAACC-3’ and 5’-[…]-3’), Hip (5’-[…]-3’ and 5’-[…]-3’), and Abca1 (5’-[…]-3’ and 5’-[…]-3’). […]
Figure 3 Inhibition of ligand-induced Hedgehog signaling. […] After 72 h, RNA was extracted and analyzed by Q-RT-PCR for the expression of Hh target genes Gli1 (a,b,d) and Ptch1 (c), and normalized to Oaz1 expression. […] Luciferase activity was measured and normalized to the Renilla luciferase activity. […]

Structure (SMILES): C[C@]12CC[C@H](O)C[C@@H]1CC[C@@H]1[C@@H]2CC[C@@]2(C)[C@H]1CC[C@@H]2[C@](C)(O)CCc1ccc(F)cc1 [Oxy186, (3S,5S,8R,9S,10S,13S,14S,17S)-17-((R)-4-(4-fluorophenyl)-2-hydroxybutan-2-yl)-10,13-dimethylhexadecahydro-1H-cyclopenta[a]phenanthren-3-ol]
- Inhibition of expression of Gli1 [1]: significantly inhibited
- Inhibition of Gli responsive luciferase reporter activity (endogenous Gli) [2]: significantly inhibited
- Inhibition of expression of Gli1 [3]: significantly inhibited
- Suppression of Hh signaling from allosteric activation of Smo by Oxy133 [4]: significantly suppressed
